Read-outs that look alike come from different tables or passages of the source.
Experiments:
[1] = target: Kv1.5 (Homo sapiens, UniProt P22460); experiment: Ion channel selectivity patch clamp; format: cell-based; settings: Voltage (+40 mV)
[2] = target: T1, α2C (h) (Homo sapiens, UniProt P18825); format: binding; settings: 1 h
T1 construct: host or cells: CHO cells
T1 sequence (P18825 1-462): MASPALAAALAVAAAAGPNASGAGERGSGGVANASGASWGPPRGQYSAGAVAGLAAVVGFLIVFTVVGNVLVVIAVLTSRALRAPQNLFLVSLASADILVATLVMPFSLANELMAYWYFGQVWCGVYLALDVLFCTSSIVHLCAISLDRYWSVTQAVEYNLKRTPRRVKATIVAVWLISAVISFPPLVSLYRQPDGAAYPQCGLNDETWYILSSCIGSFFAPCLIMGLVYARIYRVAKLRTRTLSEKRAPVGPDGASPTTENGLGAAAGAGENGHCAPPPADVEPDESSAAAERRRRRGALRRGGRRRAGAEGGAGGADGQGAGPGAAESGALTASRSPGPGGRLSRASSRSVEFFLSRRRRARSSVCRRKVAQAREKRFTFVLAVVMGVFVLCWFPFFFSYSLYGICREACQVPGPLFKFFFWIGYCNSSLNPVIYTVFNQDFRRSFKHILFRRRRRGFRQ

[3] = target: T2, tyrosine hydroxylase (Rattus norvegicus, UniProt P04177); experiment: enzyme assay; format: biochemical; settings: 1.0E-06 M
T2 construct: rat striatum; from tissue; host or cells: rat striatum

[4] = target: T3, ETA (h) (Homo sapiens, UniProt P25101); format: binding; settings: 1.0E-06 M
T3 construct: host or cells: CHO cells
T3 sequence (P25101 21-427): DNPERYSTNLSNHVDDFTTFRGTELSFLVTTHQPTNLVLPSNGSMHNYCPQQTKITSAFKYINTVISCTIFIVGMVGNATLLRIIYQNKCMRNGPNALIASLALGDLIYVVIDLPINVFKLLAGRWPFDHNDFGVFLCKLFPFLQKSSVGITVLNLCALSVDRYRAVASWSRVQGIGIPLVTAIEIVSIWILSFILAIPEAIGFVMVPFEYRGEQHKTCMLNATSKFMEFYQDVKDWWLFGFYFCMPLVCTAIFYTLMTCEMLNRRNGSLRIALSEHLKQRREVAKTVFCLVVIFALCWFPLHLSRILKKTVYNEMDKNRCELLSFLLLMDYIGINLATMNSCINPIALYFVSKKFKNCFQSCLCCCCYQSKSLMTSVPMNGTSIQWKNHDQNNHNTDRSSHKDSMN

[5] = target: T4, COX2 (h) (Homo sapiens, UniProt P35354); experiment: enzyme assay; format: biochemical; settings: 1.0E-06 M
T4 construct: Cerep (contract assay); host or cells: Sf9 cells
T4 sequence (P35354 18-604): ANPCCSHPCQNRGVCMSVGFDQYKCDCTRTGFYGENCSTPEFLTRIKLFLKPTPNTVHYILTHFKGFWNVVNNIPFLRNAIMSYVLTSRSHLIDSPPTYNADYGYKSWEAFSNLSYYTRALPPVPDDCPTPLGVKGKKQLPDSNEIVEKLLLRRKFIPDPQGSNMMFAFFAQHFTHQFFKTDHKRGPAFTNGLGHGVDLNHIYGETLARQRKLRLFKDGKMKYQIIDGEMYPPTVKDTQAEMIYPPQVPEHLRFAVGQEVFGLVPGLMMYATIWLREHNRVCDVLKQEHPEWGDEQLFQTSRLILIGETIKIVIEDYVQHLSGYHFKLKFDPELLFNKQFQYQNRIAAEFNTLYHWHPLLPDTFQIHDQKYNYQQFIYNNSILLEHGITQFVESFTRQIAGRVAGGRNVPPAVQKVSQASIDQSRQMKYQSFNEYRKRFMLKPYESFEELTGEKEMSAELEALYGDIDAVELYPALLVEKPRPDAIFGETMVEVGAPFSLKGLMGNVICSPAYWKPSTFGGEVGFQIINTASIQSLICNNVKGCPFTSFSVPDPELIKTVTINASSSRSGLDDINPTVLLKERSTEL

[6] = target: T5, COX1 (h) (Homo sapiens, UniProt P23219); experiment: biochemical; settings: 1.0E-06 M
T5 construct: Cerep (contract assay); host or cells: Sf9 cells

[7] = target: p38α kinase (h) (Homo sapiens, UniProt Q16539); experiment: enzyme assay; format: biochemical; settings: 1.0E-06 M
[8] = target: T6, mTRPC5 (Mus musculus, UniProt Q9QX29); experiment: Whole-cell manual patch clamp; format: cell-based; settings: La3+ (80 μM)
T6 construct: The cDNAs for various full-length ion channels were subcloned into pcDNA5/TO; expressed in transfected cells

[9] = target: T7, hTRPC5 (Homo sapiens, UniProt Q9UL62); experiment: Whole-cell manual patch clamp; format: cell-based
T7 construct: The cDNAs for various full-length ion channels were subcloned into pcDNA5/TO; expressed in transfected cells

[10] = target: T8, FLT-1 kinase (h) (VEGFR1) (Homo sapiens, UniProt P17948); experiment: enzyme assay; format: biochemical; settings: 1.0E-06 M
T8 construct: host or cells: Sf9 cells

[11] = target: T9, H4 (h) (Homo sapiens, UniProt Q9H3N8); format: binding; settings: 1.0E-06 M
T9 construct: host or cells: HEK-293 cells

[12] = target: T10, CysLT1 (LTD4) (h) (Homo sapiens, UniProt Q9Y271); format: binding; settings: 1.0E-06 M
T10 construct: host or cells: CHO cells
T10 sequence (Q9Y271 1-337): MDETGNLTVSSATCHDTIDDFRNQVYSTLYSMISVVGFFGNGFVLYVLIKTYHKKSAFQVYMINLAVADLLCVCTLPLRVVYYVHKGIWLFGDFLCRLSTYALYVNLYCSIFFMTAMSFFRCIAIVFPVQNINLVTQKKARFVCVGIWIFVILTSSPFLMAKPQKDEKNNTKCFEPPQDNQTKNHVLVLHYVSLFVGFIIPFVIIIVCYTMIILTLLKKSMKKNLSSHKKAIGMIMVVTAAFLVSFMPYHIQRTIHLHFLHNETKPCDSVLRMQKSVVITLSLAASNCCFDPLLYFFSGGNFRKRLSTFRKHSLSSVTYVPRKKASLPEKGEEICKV

T8 sequence (P17948 27-1338): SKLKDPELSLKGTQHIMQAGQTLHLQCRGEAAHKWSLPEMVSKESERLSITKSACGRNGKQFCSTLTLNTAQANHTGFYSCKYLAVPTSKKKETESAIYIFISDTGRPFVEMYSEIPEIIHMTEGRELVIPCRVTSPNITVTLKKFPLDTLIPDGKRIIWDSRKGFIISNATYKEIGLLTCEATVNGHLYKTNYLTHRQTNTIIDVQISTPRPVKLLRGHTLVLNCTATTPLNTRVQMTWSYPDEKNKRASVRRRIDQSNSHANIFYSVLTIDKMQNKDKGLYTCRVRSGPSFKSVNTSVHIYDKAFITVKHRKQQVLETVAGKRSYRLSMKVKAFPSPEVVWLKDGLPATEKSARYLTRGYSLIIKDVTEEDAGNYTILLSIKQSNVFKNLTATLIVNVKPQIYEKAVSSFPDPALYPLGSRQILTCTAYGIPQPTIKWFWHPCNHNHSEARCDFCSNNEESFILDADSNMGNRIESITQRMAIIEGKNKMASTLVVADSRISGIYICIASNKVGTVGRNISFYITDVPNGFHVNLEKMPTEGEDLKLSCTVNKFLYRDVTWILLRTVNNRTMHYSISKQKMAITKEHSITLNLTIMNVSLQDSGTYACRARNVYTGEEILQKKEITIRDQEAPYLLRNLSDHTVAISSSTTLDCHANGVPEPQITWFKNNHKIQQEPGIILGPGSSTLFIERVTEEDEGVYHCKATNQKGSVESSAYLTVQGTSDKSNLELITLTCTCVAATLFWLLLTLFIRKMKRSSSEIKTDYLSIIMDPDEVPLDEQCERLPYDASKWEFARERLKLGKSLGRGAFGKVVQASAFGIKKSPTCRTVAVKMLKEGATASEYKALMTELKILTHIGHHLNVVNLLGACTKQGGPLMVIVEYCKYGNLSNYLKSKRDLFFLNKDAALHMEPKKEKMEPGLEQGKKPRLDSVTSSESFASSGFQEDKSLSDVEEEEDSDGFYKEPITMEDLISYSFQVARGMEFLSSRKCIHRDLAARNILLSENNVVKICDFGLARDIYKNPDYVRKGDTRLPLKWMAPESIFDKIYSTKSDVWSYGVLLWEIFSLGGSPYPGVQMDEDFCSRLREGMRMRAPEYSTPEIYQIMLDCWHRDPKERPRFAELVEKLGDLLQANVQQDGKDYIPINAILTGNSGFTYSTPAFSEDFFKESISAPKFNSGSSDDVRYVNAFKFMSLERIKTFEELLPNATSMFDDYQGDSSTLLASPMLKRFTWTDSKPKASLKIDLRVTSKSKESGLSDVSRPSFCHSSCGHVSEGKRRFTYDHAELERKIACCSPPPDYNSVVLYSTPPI
T9 sequence (Q9H3N8 whole entry): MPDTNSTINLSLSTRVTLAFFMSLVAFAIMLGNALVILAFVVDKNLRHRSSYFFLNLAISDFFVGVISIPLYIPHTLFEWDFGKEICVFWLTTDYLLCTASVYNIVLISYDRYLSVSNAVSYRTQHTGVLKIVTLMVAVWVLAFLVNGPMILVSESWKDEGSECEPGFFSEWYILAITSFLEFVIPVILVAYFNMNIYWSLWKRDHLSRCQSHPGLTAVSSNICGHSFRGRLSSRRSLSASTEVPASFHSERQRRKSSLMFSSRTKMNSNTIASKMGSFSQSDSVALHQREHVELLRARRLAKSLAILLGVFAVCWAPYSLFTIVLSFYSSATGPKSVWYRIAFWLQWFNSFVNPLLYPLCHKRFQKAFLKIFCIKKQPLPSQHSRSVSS
T5 sequence (P23219 24-599): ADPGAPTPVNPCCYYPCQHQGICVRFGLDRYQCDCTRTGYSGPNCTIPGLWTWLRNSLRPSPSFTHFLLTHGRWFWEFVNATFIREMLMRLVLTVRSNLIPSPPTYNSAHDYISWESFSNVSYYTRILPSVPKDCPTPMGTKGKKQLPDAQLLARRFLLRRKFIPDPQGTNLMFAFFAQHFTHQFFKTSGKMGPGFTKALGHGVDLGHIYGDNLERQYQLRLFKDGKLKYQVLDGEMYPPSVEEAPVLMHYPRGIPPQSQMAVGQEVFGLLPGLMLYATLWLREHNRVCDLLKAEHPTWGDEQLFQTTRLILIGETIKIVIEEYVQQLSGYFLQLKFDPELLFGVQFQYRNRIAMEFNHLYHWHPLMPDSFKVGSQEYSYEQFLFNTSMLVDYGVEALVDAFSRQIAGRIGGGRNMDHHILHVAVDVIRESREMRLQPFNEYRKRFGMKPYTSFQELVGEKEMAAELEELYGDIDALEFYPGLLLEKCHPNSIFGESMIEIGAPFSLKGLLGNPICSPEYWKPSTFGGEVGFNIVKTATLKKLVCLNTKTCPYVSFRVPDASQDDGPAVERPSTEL
Chain of p38α kinase (h) (Q16539 whole entry): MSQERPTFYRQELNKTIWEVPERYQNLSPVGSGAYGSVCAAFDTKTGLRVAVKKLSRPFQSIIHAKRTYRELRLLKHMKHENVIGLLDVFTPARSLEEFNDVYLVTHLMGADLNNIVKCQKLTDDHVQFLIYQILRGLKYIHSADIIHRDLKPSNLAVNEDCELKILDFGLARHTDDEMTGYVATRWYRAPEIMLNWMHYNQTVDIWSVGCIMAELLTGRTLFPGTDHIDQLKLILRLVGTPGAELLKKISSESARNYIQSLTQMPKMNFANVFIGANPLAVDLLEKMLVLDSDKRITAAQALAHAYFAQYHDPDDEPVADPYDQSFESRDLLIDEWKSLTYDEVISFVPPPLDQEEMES
T7 sequence (Q9UL62 whole entry): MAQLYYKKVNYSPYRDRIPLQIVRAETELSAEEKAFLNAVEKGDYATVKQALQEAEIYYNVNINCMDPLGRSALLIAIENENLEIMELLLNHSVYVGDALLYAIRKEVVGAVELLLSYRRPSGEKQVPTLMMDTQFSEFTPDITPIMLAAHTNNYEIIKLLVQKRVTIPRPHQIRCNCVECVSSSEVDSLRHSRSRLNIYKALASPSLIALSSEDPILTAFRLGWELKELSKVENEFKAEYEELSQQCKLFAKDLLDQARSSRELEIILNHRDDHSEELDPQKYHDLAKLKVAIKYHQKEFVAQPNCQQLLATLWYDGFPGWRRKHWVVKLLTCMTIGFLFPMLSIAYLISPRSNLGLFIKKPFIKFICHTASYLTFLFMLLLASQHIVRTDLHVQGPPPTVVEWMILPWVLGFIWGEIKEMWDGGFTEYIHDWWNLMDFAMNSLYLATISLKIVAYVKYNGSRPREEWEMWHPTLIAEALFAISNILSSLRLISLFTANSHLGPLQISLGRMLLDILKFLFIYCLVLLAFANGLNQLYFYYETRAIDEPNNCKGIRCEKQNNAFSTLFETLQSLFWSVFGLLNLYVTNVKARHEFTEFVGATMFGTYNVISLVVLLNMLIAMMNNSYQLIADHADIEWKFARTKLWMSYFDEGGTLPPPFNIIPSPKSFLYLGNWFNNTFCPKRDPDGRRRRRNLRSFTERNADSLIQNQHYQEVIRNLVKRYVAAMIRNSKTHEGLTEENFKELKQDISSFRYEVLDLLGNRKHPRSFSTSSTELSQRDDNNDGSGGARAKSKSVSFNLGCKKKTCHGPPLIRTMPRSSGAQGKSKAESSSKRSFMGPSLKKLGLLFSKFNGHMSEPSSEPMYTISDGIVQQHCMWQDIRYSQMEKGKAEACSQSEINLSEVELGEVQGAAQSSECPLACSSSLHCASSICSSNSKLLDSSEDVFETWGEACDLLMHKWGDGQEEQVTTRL
T2 sequence (P04177 whole entry): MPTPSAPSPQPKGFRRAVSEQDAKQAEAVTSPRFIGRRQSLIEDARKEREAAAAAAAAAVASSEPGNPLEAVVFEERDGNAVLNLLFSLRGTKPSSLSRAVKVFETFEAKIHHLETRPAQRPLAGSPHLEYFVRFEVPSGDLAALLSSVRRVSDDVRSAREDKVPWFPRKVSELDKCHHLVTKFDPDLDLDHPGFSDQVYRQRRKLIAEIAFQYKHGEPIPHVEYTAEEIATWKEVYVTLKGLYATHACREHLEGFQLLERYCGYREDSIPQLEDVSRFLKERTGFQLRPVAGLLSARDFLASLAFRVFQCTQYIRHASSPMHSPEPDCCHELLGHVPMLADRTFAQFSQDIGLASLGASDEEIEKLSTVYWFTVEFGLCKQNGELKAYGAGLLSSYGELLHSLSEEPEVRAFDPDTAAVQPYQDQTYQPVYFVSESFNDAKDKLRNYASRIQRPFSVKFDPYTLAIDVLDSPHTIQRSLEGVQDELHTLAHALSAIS
Chain of Kv1.5 (P22460 whole entry): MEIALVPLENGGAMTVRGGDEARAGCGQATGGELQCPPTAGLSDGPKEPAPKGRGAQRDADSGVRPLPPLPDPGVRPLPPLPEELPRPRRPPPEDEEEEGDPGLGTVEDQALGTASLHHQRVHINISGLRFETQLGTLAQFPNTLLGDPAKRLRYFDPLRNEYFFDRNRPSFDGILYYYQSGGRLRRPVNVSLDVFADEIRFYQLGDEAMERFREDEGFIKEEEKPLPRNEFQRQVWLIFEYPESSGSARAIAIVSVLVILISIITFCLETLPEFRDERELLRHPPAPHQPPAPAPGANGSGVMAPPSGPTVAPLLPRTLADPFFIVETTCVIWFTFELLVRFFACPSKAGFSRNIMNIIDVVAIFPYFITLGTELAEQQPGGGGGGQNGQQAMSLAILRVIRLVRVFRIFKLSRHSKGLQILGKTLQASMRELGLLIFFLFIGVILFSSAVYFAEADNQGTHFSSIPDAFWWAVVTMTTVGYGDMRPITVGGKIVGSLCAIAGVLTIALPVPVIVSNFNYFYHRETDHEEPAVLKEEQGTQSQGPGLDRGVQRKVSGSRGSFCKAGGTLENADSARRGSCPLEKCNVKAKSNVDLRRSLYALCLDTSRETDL

Cn1c(=O)n(CCCO)c(=O)c2c1nc(Oc1cccc(Cl)c1)n2Cc1ccc(Cl)cc1 [HC-070]
IC50 [1]: > 1900 nM
inhibition at 1 µM ([2]; read-out: % Inhibition 1st): 7.9%
inhibition at 1 µM ([2]; read-out: % Inhibition 2nd): -1%
inhibition at 1 µM ([2]; read-out: % Inhibition Mean): 3.5%
inhibition at 1 µM ([3]; read-out: % Inhibition 1st): -27.2%
inhibition at 1 µM ([3]; read-out: % Inhibition Mean): -23%

Cn1c(=O)n(CCCO)c(=O)c2c1nc(Oc1cccc(OC(F)(F)F)c1)n2Cc1ccc(Cl)cc1 [HC-608]
inhibition at 1 µM ([4]; read-out: % Inhibition 1st): -33.9%
inhibition at 1 µM ([4]; read-out: % Inhibition 2nd): 6.7%
inhibition at 1 µM ([4]; read-out: % Inhibition Mean): -13.6%
inhibition at 1 µM ([5]; read-out: % Inhibition 1st): -5.6%
inhibition at 1 µM ([5]; read-out: % Inhibition 2nd): 11.8%
inhibition at 1 µM ([5]; read-out: % Inhibition Mean): 3.1%
inhibition at 1 µM ([6]; read-out: % Inhibition 1st): -1.5%
inhibition at 1 µM ([6]; read-out: % Inhibition 2nd): 27.2%
inhibition at 1 µM ([6]; read-out: % Inhibition Mean): 12.9%
% Inhibition 1st [7]: -0.9%
% Inhibition 2nd [7]: -1.2%
% Inhibition Mean [7]: -1.1%
IC50 [8]: ~0.62 nM
IC50 ([9]; 20 μM carbachol/M1R): ~0.67 nM
IC50 ([9]; La3+ (80 μM)): ~0.17 nM
inhibition at 1 µM ([10]; read-out: % Inhibition 1st): 9.3%
inhibition at 1 µM ([10]; read-out: % Inhibition 2nd): 7.3%
inhibition at 1 µM ([10]; read-out: % Inhibition Mean): 8.3%
inhibition at 1 µM ([11]; read-out: % Inhibition 1st): -13.6%
inhibition at 1 µM ([11]; read-out: % Inhibition 2nd): -1.9%
inhibition at 1 µM ([11]; read-out: % Inhibition Mean): -7.8%
inhibition at 1 µM ([12]; read-out: % Inhibition 1st): 13.2%
inhibition at 1 µM ([12]; read-out: % Inhibition 2nd): 3.4%
inhibition at 1 µM ([12]; read-out: % Inhibition Mean): 8.3%

From paper PMC5791972 (PLoS ONE, 2018)
